From PMC6588697, “Lugdunin amplifies innate immune responses in the skin in synergy with host- and microbiota-derived factors” (Nature Communications, 2019)
Values joined by “and” are separate entries in the source; they are usually repeats but may differ in a detail not shown here. Identical values can stand only once.

Columns and labels:
HEK293 cells = assay: CXCL8 expression in HEK-control cells (qRT-PCR); type: cell-based, human; conditions: 5 h, Fig 2b
Procedure: Fig. 2 Induction of chemokine (C-X-C motif) ligand 8/macrophage inflammatory protein-2 (CXCL8/MIP-2) by lugdunin is TLR2/MyD88-dependent. a HEK-control or HEK-TLR2 cells were treated with 2 μM lugdunin for 5 h and subsequently the CXCL8 concentration in the supernatant was analyzed by LEGENDplex^TM (BioLegend). Shown is one representative experiment of three independent experiments with two technical replicates ± s.e.m. b HEK-control or HEK-TLR2 cells were treated with increasing concentrations of lugdunin for 5 h and subsequently expression of CXCL8 was analyzed and normalized to actin. Shown is one representative experiment of three independent experiments with two technical replicates ± s.e.m. c Schematic overview of the mouse experiments: 6–8-week-old female C5BL/6 WT, MyD88-knockout (ko), or 5xTLR-ko mice were epicutaneously treated with 1.5 µg lugdunin or phosphate-buffered saline (PBS) as a control. After 24 h, mice were euthanized, 4 mm skin punches were taken, and further cultured in vitro for 10 h followed by cytokine analysis of the culture supernatant by LEGENDplex^TM (BioLegend). d, e Shown are the mean concentrations of IL-1α (d) or MIP-2 (e) in the skin culture supernatant of two skin punches from four mice each ± s.e.m. Significant differences to control treatments were analyzed by an unpaired two-tailed t test (*P < 0.05; **P < 0.01; ***P < 0.001). f Representative MIP-2-stained paraffin-embedded mouse skin sections. Scale bar, 100 µM. Source data are provided as a Source Data file
Quantitative reverse transcription-polymerase chain reaction (qRT-PCR) was performed in 10 µL reaction volume with SYBR^TM Green PCR Master Mix (Thermo Fisher) according to the manufacturer’s instructions using a LightCycler 96 (Roche Life Science). The initial denaturation step was at 95 °C for 5 min, followed by 40 cycles with 10 s each for the denaturation step at 95 °C, the annealing at individual temperature, and the elongation at 72 °C. Primer sequences and respective annealing temperatures are listed in Supplementary Table 1. […]

HTEpCs = assay: Cytokine release into HTEpC supernatant (LEGENDplex / ELISA); type: cell-based, human; conditions: 5 h, lugdunin 2 µM or Pam2Cys 100 ng/mL, two technical replicates, Fig 1f
PHKs = assay: Viability assay (MUH) in PHKs; type: cell-based, human
Procedure: Effects of the used peptides on keratinocytes, PBMCs, and nasal and tracheal epithelial cell viability were tested using 4-methylumbelliferyl heptanoate (MUH). Briefly, cells were treated with peptides and respective peptide combinations for 24 h, followed by incubation with 100 μg/mL MUH (Sigma-Aldrich) in PBS for 1 h at 37 °C. The absolute fluorescence intensity at λex of 355 nm and λem of 460 nm was measured using a Fluoroskan II (Labsystems).
10 a: PHKs were treated with increasing concentrations of lugdunin for 24 hours and 11 subsequently expression of CAMP (LL-37) was analyzed and normalized to actin. […]
14 b+c: PHKs were treated with increasing concentrations of lugdunin for 24 hours and 15 subsequently the concentration of LL-37 and CXCL8 in the supernatant was analyzed . […]
18 d: Representative hematoxylin-eosin-stained paraffin-embedded human 3D skin 19 equivalent. […] After 24 hours, the concentration of LL-37 and CXCL8 in the 21 supernatant was analyzed. […] Significant differences to control treatments were analyzed 23 by an unpaired two-tailed t-test (*P<0.05). […]
26 f: PHKs were treated with 2 µM natural lugdunin, synthetic lugdunin, N -Acetyl lugdunin 27 (grey bars) or 100 ng/mL Pam2Cys or Pam3Cys (white bars) as positive control for 5 28 hours and subsequently expression of CXCL8 was analyzed and normalized to actin. […]

[1] = tested on: primary human neutrophils, erythrocytes, HL60; conditions: cited from earlier work
From the text: Lugdunin represents the founding member of the new class of cyclic thiazolidine-containing peptide antibiotics. […] In our previous work, we have shown that lugdunin treatment led to a strong reduction and even complete eradication of viable S. aure ...

Lugdunin
CXCL8 expression normalized to actin (HEK293 cells; lugdunin 0.5 µM, medium = 1, two technical replicates): 1.3 and 1.16
CXCL8 expression normalized to actin (HEK293 cells; lugdunin 1 µM, two technical replicates): 1.15 and 1.02
CXCL8 expression normalized to actin (HEK293 cells; lugdunin 2 µM, two technical replicates): 2.66 and 2.46
CXCL8 expression normalized to actin (HEK293 cells; lugdunin 3 µM, two technical replicates): 1.96 and 1.97
CXCL8 expression normalized to actin (HEK293 cells; lugdunin 5 µM, two technical replicates): 2.91 and 2.73
CXCL8 expression normalized to actin (HEK293 cells; lugdunin 10 µM, two technical replicates): 1.84 and 1.91
CXCL8 concentration in supernatant (HTEpCs): 214.845 and 210.300
toxicity to the cell types analyzed (in words) (PHKs): not toxic
lysis of primary human neutrophils, erythrocytes or HL60 (in words) [1]: did neither cause lysis
